Experimental data as given in patent publication US20250353891A1 (MEDIMMUNE LIMITED, priority 2022, published 2025).
pEC50: −log10 of the molar value. Starred links: 1 amine or outer side, 2 acyl side, 3 side chain; linkers in the order of their positions; H or OH if unused. Non-standard residues stand in square brackets, D forms with d. Residues, ends and D or L forms follow the SMILES beside them. Groups on a side chain read outwards from the residue. *: point of attachment. C18 diacid = O=C(O)CCCCCCCCCCCCCCCCC(=O)*; γGlu = O=C(O)[C@H](CCC(=O)[*:2])N[*:1]; αMeF = C[C@](N)(Cc1ccccc1)C(=O)O; Aib = CC(C)(N)C(=O)O

Assays:
[1] = target: human GLP-1 receptor (hGLP-1R) (Homo sapiens, UniProt P43220); assay: cAMP production (HTRF) in CHO cells expressing hGLP-1R; format: cell-based; design: expressed in transfected cells; details: for pEC50: Table 7, peptides modified at position 20, cAMP in CHO hGLP-1R cells, geometric mean, read-out: hGLP-1R EC50; for % Relative Potency Ratio: Table 7, % GLP-1R activity relative to GLP-1 / % GlucR activity relative to glucagon
Sequence of human GLP-1 receptor (hGLP-1R) (P43220 24-463): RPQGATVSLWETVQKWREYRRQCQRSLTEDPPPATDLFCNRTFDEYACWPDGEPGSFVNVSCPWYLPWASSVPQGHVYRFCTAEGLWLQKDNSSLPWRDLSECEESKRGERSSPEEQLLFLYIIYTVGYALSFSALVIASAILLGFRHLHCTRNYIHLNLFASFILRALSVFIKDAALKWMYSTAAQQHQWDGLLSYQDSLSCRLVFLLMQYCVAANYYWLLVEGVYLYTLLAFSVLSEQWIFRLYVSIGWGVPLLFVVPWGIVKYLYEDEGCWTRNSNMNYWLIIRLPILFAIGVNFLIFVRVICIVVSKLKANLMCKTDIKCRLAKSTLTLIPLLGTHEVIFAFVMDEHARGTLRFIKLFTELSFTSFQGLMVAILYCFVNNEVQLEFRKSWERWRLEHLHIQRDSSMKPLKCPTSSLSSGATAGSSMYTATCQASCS
Procedure, shortened: (§1)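 Read-out: HTRF cAMP (anti-cAMP cryptate donor, cAMP-d2 acceptor in conjugate/lysis buffer), converted to % Delta F and fitted by 4-parameter logistic for EC50. Cell densities were 1×10^5 cells/mL (hGLP-1R) or 2×10^5 cells/mL (hGCGR). Stimulation lasted 30 min at room temperature.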

[2] = target: human glucagon receptor (hGCGR) (Homo sapiens, UniProt P47871); assay: cAMP production (HTRF) in CHO cells expressing hGCGR; format: cell-based; design: expressed in transfected cells; details: Table 7, peptides modified at position 20; cAMP in CHO hGCGR cells; geometric mean; read-out: hGluc-R EC50
Sequence of human glucagon receptor (hGCGR) (P47871 26-477): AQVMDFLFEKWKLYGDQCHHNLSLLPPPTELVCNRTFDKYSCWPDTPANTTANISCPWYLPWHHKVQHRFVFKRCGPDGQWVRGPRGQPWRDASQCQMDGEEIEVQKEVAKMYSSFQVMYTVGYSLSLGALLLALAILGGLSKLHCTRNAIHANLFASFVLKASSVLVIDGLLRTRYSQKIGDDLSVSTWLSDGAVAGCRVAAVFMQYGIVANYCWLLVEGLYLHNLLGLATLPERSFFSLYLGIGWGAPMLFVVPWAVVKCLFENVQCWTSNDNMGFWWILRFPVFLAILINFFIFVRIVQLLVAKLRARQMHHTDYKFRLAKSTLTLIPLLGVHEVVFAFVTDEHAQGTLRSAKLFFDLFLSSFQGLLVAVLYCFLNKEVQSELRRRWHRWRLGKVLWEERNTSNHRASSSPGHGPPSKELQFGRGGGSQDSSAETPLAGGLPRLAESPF
Procedure, shortened: as §1

| pEC50 [1] | % Relative Potency Ratio [1] | pEC50 [2] | Compound |
| --- | --- | --- | --- |
| 9.87 | 3.1 | 9.67 | CC(C)C[C@H](NC(=O)[C@H](Cc1c[nH]c2ccccc12)NC(=O)[C@H](CCC(N)=O)NC(=O)[C@@H](NC(=O)[C@H](Cc1ccccc1)NC(=O)[C@H](CC(=O)O)NC(=O)[C@H](CCCCNC(=O)COCCOCCNC(=O)COCCOCCNC(=O)CC[C@H](NC(=O)CCCCCCCCCCCCCCCCC(=O)O)C(=O)O)NC(=O)[C@H](C)NC(=O)[C@H](CCCNC(=N)N)NC(=O)[C@H](CCCNC(=N)N)NC(=O)[C@H](CO)NC(=O)[C@H](CC(=O)O)NC(=O)[C@H](CC(C)C)NC(=O)[C@](C)(Cc1ccccc1)NC(=O)[C@H](CCCCN)NC(=O)[C@H](CO)NC(=O)[C@@H](NC(=O)[C@H](CC(=O)O)NC(=O)[C@H](CO)NC(=O)[C@@H](NC(=O)[C@H](Cc1ccccc1)NC(=O)[C@@H](NC(=O)CNC(=O)[C@H](CCC(N)=O)NC(=O)C(C)(C)NC(=O)[C@@H](N)Cc1c[nH]cn1)[C@@H](C)O)[C@@H](C)O)C(C)C)C(C)C)C(=O)N[C@@H](CC(C)C)C(=O)NC(C)(C)C(=O)N[C@H](C(=O)N[C@@H](CCC(=O)O)C(=O)O)[C@@H](C)O [Peptide 333] |
| 9.60 | 3.7 | 9.34 | CC(C)C[C@H](NC(=O)[C@H](Cc1c[nH]c2ccccc12)NC(=O)[C@H](CCC(N)=O)NC(=O)[C@@H](NC(=O)[C@H](Cc1ccccc1)NC(=O)[C@H](CC(=O)O)NC(=O)[C@H](CCCCNC(=O)CC[C@H](NC(=O)CCCCCCCCCCCCCCCCC(=O)O)C(=O)O)NC(=O)[C@H](C)NC(=O)[C@H](CCCNC(=N)N)NC(=O)[C@H](CCCNC(=N)N)NC(=O)[C@H](CO)NC(=O)[C@H](CC(=O)O)NC(=O)[C@H](CC(C)C)NC(=O)[C@](C)(Cc1ccccc1)NC(=O)[C@H](CCCCN)NC(=O)[C@H](CO)NC(=O)[C@H](Cc1ccc(O)cc1)NC(=O)[C@H](CC(=O)O)NC(=O)[C@H](CO)NC(=O)[C@@H](NC(=O)[C@H](Cc1ccccc1)NC(=O)[C@@H](NC(=O)CNC(=O)[C@H](CCC(N)=O)NC(=O)C(C)(C)NC(=O)[C@@H](N)Cc1c[nH]cn1)[C@@H](C)O)[C@@H](C)O)C(C)C)C(=O)N[C@@H](C)C(=O)NC(C)(C)C(=O)N[C@@H](CCC(=O)O)C(=O)O [Peptide 334] |
| 8.97 | 0.6 | 9.51 | CC(C)C[C@H](NC(=O)[C@H](Cc1c[nH]c2ccccc12)NC(=O)[C@H](CCC(N)=O)NC(=O)[C@@H](NC(=O)[C@H](Cc1ccccc1)NC(=O)[C@H](CC(=O)O)NC(=O)[C@H](CCCCNC(=O)CC[C@H](NC(=O)CCCCCCCCCCCCCCCCC(=O)O)C(=O)O)NC(=O)[C@H](C)NC(=O)[C@H](CCCNC(=N)N)NC(=O)[C@H](CCCNC(=N)N)NC(=O)[C@H](CO)NC(=O)[C@H](CC(=O)O)NC(=O)[C@H](CC(C)C)NC(=O)[C@](C)(Cc1ccccc1)NC(=O)[C@H](CCCCN)NC(=O)[C@H](CO)NC(=O)[C@H](Cc1ccc(O)cc1)NC(=O)[C@H](CC(=O)O)NC(=O)[C@H](CO)NC(=O)[C@@H](NC(=O)[C@H](Cc1ccccc1)NC(=O)[C@@H](NC(=O)CNC(=O)[C@H](CCC(N)=O)NC(=O)C(C)(C)NC(=O)[C@@H](N)Cc1c[nH]cn1)[C@@H](C)O)[C@@H](C)O)C(C)C)C(=O)N[C@@H](CC(C)C)C(=O)N[C@@H](CCC(=O)O)C(=O)NC(C)(C)C(=O)NCC(=O)O [Peptide 335] |
| 9.20 | 1.0 | 9.52 | CC[C@H](C)[C@H](NC(=O)[C@H](CC(C)C)NC(=O)[C@H](Cc1c[nH]c2ccccc12)NC(=O)[C@H](CCC(N)=O)NC(=O)[C@@H](NC(=O)[C@H](Cc1ccccc1)NC(=O)[C@H](CC(=O)O)NC(=O)[C@H](CCCCNC(=O)CC[C@H](NC(=O)CCCCCCCCCCCCCCCCC(=O)O)C(=O)O)NC(=O)[C@H](C)NC(=O)[C@H](CCCNC(=N)N)NC(=O)[C@H](CCCNC(=N)N)NC(=O)[C@H](CO)NC(=O)[C@H](CC(=O)O)NC(=O)[C@H](CC(C)C)NC(=O)[C@](C)(Cc1ccccc1)NC(=O)[C@H](CCCCN)NC(=O)[C@H](CO)NC(=O)[C@H](Cc1ccc(O)cc1)NC(=O)[C@H](CC(=O)O)NC(=O)[C@H](CO)NC(=O)[C@@H](NC(=O)[C@H](Cc1ccccc1)NC(=O)[C@@H](NC(=O)CNC(=O)[C@H](CCC(N)=O)NC(=O)C(C)(C)NC(=O)[C@@H](N)Cc1c[nH]cn1)[C@@H](C)O)[C@@H](C)O)C(C)C)C(=O)N[C@@H](CO)C(=O)N[C@@H](CCC(=O)O)C(=O)O [Peptide 336] (H-H[Aib]QGTFTSDYSK[αMeF]LDSRRAK([γGlu-C18 diacid])DFVQWLISE-OH; N-terminus assumed) |
| 9.40 | 0.4 | 10.05 | CC(C)C[C@H](NC(=O)[C@H](Cc1c[nH]c2ccccc12)NC(=O)[C@H](CCC(N)=O)NC(=O)[C@@H](NC(=O)[C@H](Cc1ccccc1)NC(=O)[C@H](CC(=O)O)NC(=O)[C@H](CCCCNC(=O)CC[C@H](NC(=O)CCCCCCCCCCCCCCCCC(=O)O)C(=O)O)NC(=O)[C@H](C)NC(=O)[C@H](CCCNC(=N)N)NC(=O)[C@H](CCCNC(=N)N)NC(=O)[C@H](CO)NC(=O)[C@H](CC(=O)O)NC(=O)[C@H](CC(C)C)NC(=O)[C@](C)(Cc1ccccc1)NC(=O)[C@H](CCCCN)NC(=O)[C@H](CO)NC(=O)[C@H](Cc1ccc(O)cc1)NC(=O)[C@H](CC(=O)O)NC(=O)[C@H](CO)NC(=O)[C@@H](NC(=O)[C@H](Cc1ccccc1)NC(=O)[C@@H](NC(=O)CNC(=O)[C@H](CCC(N)=O)NC(=O)C(C)(C)NC(=O)[C@@H](N)Cc1c[nH]cn1)[C@@H](C)O)[C@@H](C)O)C(C)C)C(=O)N[C@@H](CC(C)C)C(=O)NC(C)(C)C(=O)N[C@H](C(=O)O)[C@@H](C)O [Peptide 337] |
| 9.51 | 0.2 | 10.59 | CC(C)C[C@H](NC(=O)[C@H](Cc1c[nH]c2ccccc12)NC(=O)[C@H](CCC(N)=O)NC(=O)[C@@H](NC(=O)[C@H](Cc1ccccc1)NC(=O)[C@H](CC(=O)O)NC(=O)[C@H](CCCCNC(=O)CC[C@H](NC(=O)CCCCCCCCCCCCCCCCC(=O)O)C(=O)O)NC(=O)[C@H](C)NC(=O)[C@H](CCCNC(=N)N)NC(=O)[C@H](CCCNC(=N)N)NC(=O)C(C)(C)NC(=O)[C@H](CC(=O)O)NC(=O)[C@H](CC(C)C)NC(=O)[C@](C)(Cc1ccccc1)NC(=O)[C@H](CCCCN)NC(=O)[C@H](CO)NC(=O)[C@H](Cc1ccc(O)cc1)NC(=O)[C@H](CC(=O)O)NC(=O)[C@H](CO)NC(=O)[C@@H](NC(=O)[C@H](Cc1ccccc1)NC(=O)[C@@H](NC(=O)CNC(=O)[C@H](CCC(N)=O)NC(=O)C(C)(C)NC(=O)[C@@H](N)Cc1c[nH]cn1)[C@@H](C)O)[C@@H](C)O)C(C)C)C(=O)N[C@@H](CC(C)C)C(=O)NC(C)(C)C(=O)N[C@H](C(=O)O)[C@@H](C)O [Peptide 338] |
